{
  "source": "patent US11812767B2",
  "about": "“Beverage having Reb D and Reb M” (SUNTORY HOLDINGS LIMITED, priority 2018, dated 2023)",
  "key": {"[1]": {"test": "Degradation of Reb D and Reb M in phosphate buffer at 40° C. for 8 weeks, analysed by HPLC", "type": "physicochemical", "settings": "for % Reb M degradation 2 weeks: 2 weeks at 40° C.; for % Reb M degradation 4 weeks: 4 weeks at 40° C.; for % Reb M degradation 6 weeks: 6 weeks at 40° C.; for % Reb M degradation 8 weeks: 8 weeks at 40° C.", "description": "A study was carried out as follows, samples were prepared comprising 50 ppm, 150 ppm, 250 ppm and 400 ppm, of Reb D and samples with the following ratios of Reb D:Reb M 1:4, 1:1, 4:1 wherein the total concentration of the sample was 400 ppm. The samples were prepared in phosphate buffer and the pH was adjusted using phosphoric acid. Samples were prepared at the following pH; 2.0, 2.5, 3.0 and 3.5. These samples were incubated at 40° C. for 8 weeks. This incubation protocol should mimic the degradation at room temperature over 6 months. The amount of Reb D and Reb M in each sample at T=0 was calculated by HPLC this was then used to calculate the amount of remaining Reb M in each sample at each specified time point. Aliquots were taken at 2, 4, 6 and 8 weeks and analysed by HPLC to determine the degradation of Reb D and combinations of Reb D and Reb M over the 8 week study."}, "[2]": {"settings": "cited from earlier work"}, "[3]": {"settings": "pH 2, Reb D 0.008 % w/w + Reb M 0.032 % w/w"}, "[4]": {"settings": "pH 2, Reb D 0.02 % w/w + Reb M 0.02 % w/w"}, "[5]": {"settings": "pH 2, Reb D 0.032 % w/w + Reb M 0.008 % w/w"}, "[6]": {"settings": "pH 2.5, Reb D 0.008 % w/w + Reb M 0.032 % w/w"}, "[7]": {"settings": "pH 2.5, Reb D 0.02 % w/w + Reb M 0.02 % w/w"}, "[8]": {"settings": "pH 2.5, Reb D 0.032 % w/w + Reb M 0.008 % w/w"}, "[9]": {"settings": "pH 3, Reb D 0.008 % w/w + Reb M 0.032 % w/w"}, "[10]": {"settings": "pH 3, Reb D 0.02 % w/w + Reb M 0.02 % w/w"}, "[11]": {"settings": "pH 3, Reb D 0.032 % w/w + Reb M 0.008 % w/w"}, "[12]": {"settings": "pH 3.5, Reb D 0.008 % w/w + Reb M 0.032 % w/w"}, "[13]": {"settings": "pH 3.5, Reb D 0.02 % w/w + Reb M 0.02 % w/w"}, "[14]": {"settings": "pH 3.5, Reb D 0.032 % w/w + Reb M 0.008 % w/w"}},
  "data": [
    {"molecule": "C=C1C[C@@]23CC[C@H]4[C@@](C)(CCC[C@@]4(C)C(=O)O[C@@H]4O[C@H](CO)[C@@H](O)[C@H](O[C@@H]5O[C@H](CO)[C@@H](O)[C@H](O)[C@H]5O)[C@H]4O[C@@H]4O[C@H](CO)[C@@H](O)[C@H](O)[C@H]4O)[C@@H]2CC[C@]1(O[C@@H]1O[C@H](CO)[C@@H](O)[C@H](O[C@@H]2O[C@H](CO)[C@@H](O)[C@H](O)[C@H]2O)[C@H]1O[C@@H]1O[C@H](CO)[C@@H](O)[C@H](O)[C@H]1O)C3", "note": "[Reb M, rebaudioside M]", "values": [
      {"measurement": "% Reb M degradation 2 weeks", "setting": "[1]; [3]", "result": 28, "unit": "%"},
      {"measurement": "% Reb M degradation 4 weeks", "setting": "[1]; [3]", "result": 55, "unit": "%"},
      {"measurement": "% Reb M degradation 6 weeks", "setting": "[1]; [3]", "result": 71, "unit": "%"},
      {"measurement": "% Reb M degradation 8 weeks", "setting": "[1]; [3]", "result": 80, "unit": "%"},
      {"measurement": "% Reb M degradation 2 weeks", "setting": "[1]; [4]", "result": 25, "unit": "%"},
      {"measurement": "% Reb M degradation 4 weeks", "setting": "[1]; [4]", "result": 56, "unit": "%"},
      {"measurement": "% Reb M degradation 6 weeks", "setting": "[1]; [4]", "result": 69, "unit": "%"},
      {"measurement": "% Reb M degradation 8 weeks", "setting": "[1]; [4]", "result": 78, "unit": "%"},
      {"measurement": "% Reb M degradation 2 weeks", "setting": "[1]; [5]", "result": 35, "unit": "%"},
      {"measurement": "% Reb M degradation 4 weeks", "setting": "[1]; [5]", "result": 59, "unit": "%"},
      {"measurement": "% Reb M degradation 6 weeks", "setting": "[1]; [5]", "result": 72, "unit": "%"},
      {"measurement": "% Reb M degradation 8 weeks", "setting": "[1]; [5]", "result": 80, "unit": "%"},
      {"measurement": "% Reb M degradation 2 weeks", "setting": "[1]; [6]", "result": 3, "unit": "%"},
      {"measurement": "% Reb M degradation 4 weeks", "setting": "[1]; [6]", "result": 22, "unit": "%"},
      {"measurement": "% Reb M degradation 6 weeks", "setting": "[1]; [6]", "result": 31, "unit": "%"},
      {"measurement": "% Reb M degradation 8 weeks", "setting": "[1]; [6]", "result": 38, "unit": "%"},
      {"measurement": "% Reb M degradation 2 weeks", "setting": "[1]; [7]", "result": 6, "unit": "%"},
      {"measurement": "% Reb M degradation 4 weeks", "setting": "[1]; [7]", "result": 20, "unit": "%"},
      {"measurement": "% Reb M degradation 6 weeks", "setting": "[1]; [7]", "result": 29, "unit": "%"},
      {"measurement": "% Reb M degradation 8 weeks", "setting": "[1]; [7]", "result": 38, "unit": "%"},
      {"measurement": "% Reb M degradation 2 weeks", "setting": "[1]; [8]", "result": 4, "unit": "%"},
      {"measurement": "% Reb M degradation 4 weeks", "setting": "[1]; [8]", "result": 18, "unit": "%"},
      {"measurement": "% Reb M degradation 6 weeks", "setting": "[1]; [8]", "result": 28, "unit": "%"},
      {"measurement": "% Reb M degradation 8 weeks", "setting": "[1]; [8]", "result": 38, "unit": "%"},
      {"measurement": "% Reb M degradation 2 weeks", "setting": "[1]; [9]", "result": 0, "unit": "%"},
      {"measurement": "% Reb M degradation 4 weeks", "setting": "[1]; [9]", "result": 11, "unit": "%"},
      {"measurement": "% Reb M degradation 6 weeks", "setting": "[1]; [9]", "result": 15, "unit": "%"},
      {"measurement": "% Reb M degradation 8 weeks", "setting": "[1]; [9]", "result": 17, "unit": "%"},
      {"measurement": "% Reb M degradation 2 weeks", "setting": "[1]; [10]", "result": 0, "unit": "%"},
      {"measurement": "% Reb M degradation 4 weeks", "setting": "[1]; [10]", "result": 10, "unit": "%"},
      {"measurement": "% Reb M degradation 6 weeks", "setting": "[1]; [10]", "result": 14, "unit": "%"},
      {"measurement": "% Reb M degradation 8 weeks", "setting": "[1]; [10]", "result": 17, "unit": "%"},
      {"measurement": "% Reb M degradation 2 weeks", "setting": "[1]; [11]", "result": 0, "unit": "%"},
      {"measurement": "% Reb M degradation 4 weeks", "setting": "[1]; [11]", "result": 7, "unit": "%"},
      {"measurement": "% Reb M degradation 6 weeks", "setting": "[1]; [11]", "result": 12, "unit": "%"},
      {"measurement": "% Reb M degradation 8 weeks", "setting": "[1]; [11]", "result": 15, "unit": "%"},
      {"measurement": "% Reb M degradation 2 weeks", "setting": "[1]; [12]", "result": 0, "unit": "%"},
      {"measurement": "% Reb M degradation 4 weeks", "setting": "[1]; [12]", "result": 4, "unit": "%"},
      {"measurement": "% Reb M degradation 6 weeks", "setting": "[1]; [12]", "result": 4, "unit": "%"},
      {"measurement": "% Reb M degradation 8 weeks", "setting": "[1]; [12]", "result": 6, "unit": "%"},
      {"measurement": "% Reb M degradation 2 weeks", "setting": "[1]; [13]", "result": 0, "unit": "%"},
      {"measurement": "% Reb M degradation 4 weeks", "setting": "[1]; [13]", "result": 3, "unit": "%"},
      {"measurement": "% Reb M degradation 6 weeks", "setting": "[1]; [13]", "result": 4, "unit": "%"},
      {"measurement": "% Reb M degradation 8 weeks", "setting": "[1]; [13]", "result": 7, "unit": "%"},
      {"measurement": "% Reb M degradation 2 weeks", "setting": "[1]; [14]", "result": 0, "unit": "%"},
      {"measurement": "% Reb M degradation 4 weeks", "setting": "[1]; [14]", "result": 0, "unit": "%"},
      {"measurement": "% Reb M degradation 6 weeks", "setting": "[1]; [14]", "result": 2, "unit": "%"},
      {"measurement": "% Reb M degradation 8 weeks", "setting": "[1]; [14]", "result": 5, "unit": "%"},
      {"measurement": "Sweetness potency (relative to sucrose)", "setting": "[2]", "result": "200-250"}
    ]},
    {"molecule": "C=C1C[C@@]23CC[C@H]4[C@@](C)(CCC[C@@]4(C)C(=O)O[C@@H]4O[C@H](CO)[C@@H](O)[C@H](O)[C@H]4O)[C@@H]2CC[C@]1(O[C@@H]1O[C@H](CO)[C@@H](O)[C@H](O[C@@H]2O[C@H](CO)[C@@H](O)[C@H](O)[C@H]2O)[C@H]1O[C@@H]1O[C@H](CO)[C@@H](O)[C@H](O)[C@H]1O)C3", "note": "[Rebaudioside A]", "values": [
      {"measurement": "Sweetness potency (relative to sucrose)", "setting": "[2]", "result": "200-300"}
    ]},
    {"molecule": "C=C1C[C@@]23CC[C@H]4[C@@](C)(CCC[C@@]4(C)C(=O)O[C@@H]4O[C@H](CO)[C@@H](O)[C@H](O)[C@H]4O[C@@H]4O[C@H](CO)[C@@H](O)[C@H](O)[C@H]4O)[C@@H]2CC[C@]1(O[C@@H]1O[C@H](CO)[C@@H](O)[C@H](O)[C@H]1O[C@@H]1O[C@H](CO)[C@@H](O)[C@H](O)[C@H]1O)C3", "note": "[Rebaudioside E]", "values": [
      {"measurement": "Sweetness potency (relative to sucrose)", "setting": "[2]", "result": 174}
    ]},
    {"molecule": "C=C1C[C@@]23CC[C@H]4[C@@](C)(CCC[C@@]4(C)C(=O)O[C@@H]4O[C@H](CO)[C@@H](O)[C@H](O)[C@H]4O)[C@@H]2CC[C@]1(O[C@@H]1O[C@H](CO)[C@@H](O)[C@H](O)[C@H]1O)C3", "note": "[Rubusoside]", "values": [
      {"measurement": "Sweetness potency (relative to sucrose)", "setting": "[2]", "result": 114}
    ]},
    {"molecule": "C=C1C[C@@]23CC[C@H]4[C@@](C)(CCC[C@@]4(C)C(=O)O)[C@@H]2CC[C@]1(O[C@@H]1O[C@H](CO)[C@@H](O)[C@H](O)[C@H]1O[C@@H]1O[C@H](CO)[C@@H](O)[C@H](O)[C@H]1O)C3", "note": "[Steviolbioside]", "values": [
      {"measurement": "Sweetness potency (relative to sucrose)", "setting": "[2]", "result": 90}
    ]},
    {"molecule": "C=C1C[C@@]23CC[C@H]4[C@@](C)(CCC[C@@]4(C)C(=O)O[C@@H]4O[C@H](CO)[C@@H](O)[C@H](O)[C@H]4O)[C@@H]2CC[C@]1(O[C@@H]1O[C@H](CO)[C@@H](O)[C@H](O)[C@H]1O[C@@H]1O[C@H](CO)[C@@H](O)[C@H](O)[C@H]1O)C3", "note": "[Stevioside]", "values": [
      {"measurement": "Sweetness potency (relative to sucrose)", "setting": "[2]", "result": "150-250"}
    ]},
    {"molecule": "Rebaudioside B", "values": [
      {"measurement": "Sweetness potency (relative to sucrose)", "setting": "[2]", "result": 150}
    ]},
    {"molecule": "Rebaudioside C", "values": [
      {"measurement": "Sweetness potency (relative to sucrose)", "setting": "[2]", "result": 30}
    ]},
    {"molecule": "Rebaudioside F", "values": [
      {"measurement": "Sweetness potency (relative to sucrose)", "setting": "[2]", "result": 200}
    ]}
  ]
}
